How the values were obtained:
JAK1 = JAK1 (Homo sapiens (Human), UniProt P23458); assay: Jak biochemical HTRF assay, JAK1; details: HTRF biochemical assay, recombinant GST-tagged catalytic domain; read-out: JAK1 IC50
JAK2 = JAK2 (Homo sapiens (Human), UniProt O60674); assay: Jak biochemical HTRF assay, JAK2; details: HTRF biochemical assay, recombinant GST-tagged catalytic domain; read-out: JAK2 IC50
Chain of JAK2 (O60674 849-1124): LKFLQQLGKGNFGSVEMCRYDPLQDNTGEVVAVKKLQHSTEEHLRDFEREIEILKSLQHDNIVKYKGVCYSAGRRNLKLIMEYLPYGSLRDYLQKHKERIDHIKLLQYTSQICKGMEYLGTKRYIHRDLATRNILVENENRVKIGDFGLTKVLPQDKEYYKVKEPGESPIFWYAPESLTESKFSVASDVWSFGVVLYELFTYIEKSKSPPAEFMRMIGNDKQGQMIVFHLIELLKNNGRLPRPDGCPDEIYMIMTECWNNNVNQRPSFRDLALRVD

Chain of JAK1 (P23458 875-1153): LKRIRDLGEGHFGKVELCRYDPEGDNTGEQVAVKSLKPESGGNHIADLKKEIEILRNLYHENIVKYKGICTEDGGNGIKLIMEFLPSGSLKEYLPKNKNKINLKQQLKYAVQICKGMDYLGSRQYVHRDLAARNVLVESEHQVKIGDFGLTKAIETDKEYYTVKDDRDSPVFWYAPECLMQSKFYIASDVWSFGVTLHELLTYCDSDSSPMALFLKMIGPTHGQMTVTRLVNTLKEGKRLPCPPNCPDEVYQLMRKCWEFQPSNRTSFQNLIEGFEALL

SMILES	IC50 (JAK1)	IC50 (JAK2)
N#C[C@H]1CCCC[C@@H]1n1nc(Nc2cccc(Cn3cccn3)c2)c2c(=O)[nH]ccc21 [Example 3-43, (1S,2S)-2-(4-oxo-3-{[3-(1H-pyrazol-1-ylmethyl)phenyl]amino}-4,5-dihydro-1H-pyrazolo[4,3-c]pyridin-1-yl)cyclohexanecarbonitrile]	1.4 nM	1.7 nM
N#CCCn1cc(-c2ccc(Nc3nn([C@H]4CCCC[C@@H]4C#N)c4cc[nH]c(=O)c34)cc2)cn1 [Example 15-14, (1S,2S)-2-[3-({4-[1-(2-cyanoethyl)-1H-pyrazol-4-yl]phenyl}amino)-4-oxo-4,5-dihydro-1H-pyrazolo[4,3-c]pyridin-1-yl]cyclohexanecarbonitrile]	0.065 nM	1.1 nM
CCN1Cc2cc(Nc3nn([C@H]4CCCC[C@@H]4C#N)c4cc[nH]c(=O)c34)ccc2S1(=O)=O [Example 3-60, (1S,2S)-2-{3-[(2-ethyl-1,1-dioxido-2,3-dihydro-1,2-benzisothiazol-5-yl)amino]-4-oxo-4,5-dihydro-1H-pyrazolo[4,3-c]pyridin-1-yl}cyclohexanecarbonitrile]	0.044 nM	0.41 nM
N#C[C@H]1CCCC[C@@H]1n1nc(Nc2ccc([C@H]3C[C@H]4CC[C@@H](C3)N4)cc2)c2c(=O)[nH]ccc21 [Example 20-2]	0.39 nM	0.39 nM
N#C[C@H]1CCCC[C@@H]1n1nc(Nc2cccc(CNC(=O)c3ncccn3)c2)c2c(=O)[nH]ccc21 [Example 3-17, N-[3-({1-[(1S,2S)-2-cyanocyclohexyl]-4-oxo-4,5-dihydro-1H-pyrazolo[4,3-c]pyridin-3-yl}amino)benzyl]pyrimidine-2-carboxamide]	0.91 nM	5.8 nM
COCCC(C)(C)N1Cc2cc(Nc3nn([C@H]4CCCC[C@@H]4C#N)c4cc[nH]c(=O)c34)ccc2S1(=O)=O [Example 3-161, (1S,2S)-2-(3-{[2-(3-methoxy-1,1-dimethylpropyl)-1,1-dioxido-2,3-dihydro-1,2-benzisothiazol-5-yl]amino}-4-oxo-4,5-dihydro-1H-pyrazolo[4,3-c]pyridin-1-yl)cyclohexanecarbonitrile]	0.067 nM	0.15 nM
CC(C)(O)c1cn(Cc2ccc(Nc3nn([C@H]4CCCC[C@@H]4C#N)c4cc[nH]c(=O)c34)cc2)nn1 [Example 3-52, (1S,2S)-2-{3-[(4-{[4-(1-hydroxy-1-methylethyl)-1H-1,2,3-triazol-1-yl]methyl}phenyl)amino]-4-oxo-4,5-dihydro-1H-pyrazolo[4,3-c]pyridin-1-yl}cyclohexanecarbonitrile]	0.16 nM	0.41 nM
N#C[C@H]1CCCC[C@@H]1n1nc(Nc2cccc(Cn3nccn3)c2)c2c(=O)[nH]ccc21 [Example 3-28, (1S,2S)-2-(4-oxo-3-{[3-(2H-1,2,3-triazol-2-ylmethyl)phenyl]amino}-4,5-dihydro-1H-pyrazolo[4,3-c]pyridin-1-yl)cyclohexanecarbonitrile]	1 nM	0.93 nM
N#C[C@@H]1C[C@@H](N2CCC2)CC[C@H]1n1nc(Nc2ccc(C(F)(F)F)cc2)c2c(=O)[nH]ccc21 [Example 5-9, (1R,2R,5S)-5-(azetidin-1-yl)-2-(4-oxo-3-((4-(trifluoromethyl)phenyl)amino)-4,5-dihydro-1H-pyrazolo[4,3-c]pyridin-1-yl)cyclohexanecarbonitrile]	25 nM	660 nM
Cc1cc(Nc2nn([C@@H]3CCCCC[C@H]3C#N)c3cc[nH]c(=O)c23)ccc1C(=O)N1CCCC1 (single isomer, unassigned) [Example 15-45, (1R,2R or 1S,2S)-2-(3-{[3-methyl-4-(pyrrolidin-1-ylcarbonyl)phenyl]amino}-4-oxo-4,5-dihydro-1H-pyrazolo[4,3-c]pyridin-1-yl)cycloheptanecarbonitrile]	0.43 nM	0.41 nM
N#C[C@H]1CCCC[C@@H]1n1nc(Nc2ccc(S(=O)(=O)N3CCOCC3)cc2)c2c(=O)[nH]ccc21 [Example 3-24, (1S,2S)-2-(3-{[4-(morpholin-4-ylsulfonyl)phenyl]amino}-4-oxo-4,5-dihydro-1H-pyrazolo[4,3-c]pyridin-1-yl)cyclohexanecarbonitrile]	0.15 nM	0.47 nM
N#C[C@H]1CCCC[C@@H]1n1nc(Nc2ccc3c(c2)CNC3C(F)F)c2c(=O)[nH]ccc21 (single isomer, unassigned) [Example 15-28, (1S,2S)-2-(3-{[(1S or 1R)-1-(difluoromethyl)-2,3-dihydro-1H-isoindol-5-yl]amino}-4-oxo-4,5-dihydro-1H-pyrazolo[4,3-c]pyridin-1-yl)cyclohexanecarbonitrile]	0.25 nM	0.63 nM
CCNC(c1ccc(Nc2nn([C@H]3CCC[C@@H]3C#N)c3cc[nH]c(=O)c23)cc1)C(F)(F)F (single isomer, unassigned) [Example 3-113, (1S,2S)-2-[3-({4-[(1R or 1S)-1-(ethylamino)-2,2,2-trifluoroethyl]phenyl}amino)-4-oxo-4,5-dihydro-1H-pyrazolo[4,3-c]pyridin-1-yl]cyclopentanecarbonitrile]	0.15 nM	0.31 nM
CC(C)CN1Cc2cc(Nc3nn([C@H]4CCCC[C@@H]4C#N)c4cc[nH]c(=O)c34)ccc2S1(=O)=O [Example 3-62, (1S,2S)-2-(3-{[2-(2-methylpropyl)-1,1-dioxido-2,3-dihydro-1,2-benzisothiazol-5-yl]amino}-4-oxo-4,5-dihydro-1H-pyrazolo[4,3-c]pyridin-1-yl)cyclohexanecarbonitrile]	0.083 nM	0.41 nM
CC(C)[C@H](C)N1Cc2ccc(Nc3nn([C@H]4CCCC[C@@H]4C#N)c4cc[nH]c(=O)c34)cc2C1 [Example 3-148, (1S,2S)-2-[3-({2-[(1S)-1,2-dimethylpropyl]-2,3-dihydro-1H-isoindol-5-yl}amino)-4-oxo-4,5-dihydro-1H-pyrazolo[4,3-c]pyridin-1-yl]cyclohexanecarbonitrile]	0.31 nM	0.43 nM
N#C[C@H]1C[C@@H](N2CCC2)CC[C@@H]1n1nc(Nc2ccc(OC(F)(F)F)cc2)c2c(=O)[nH]ccc21 [Example 5-24, (1S,2S,5S)-5-(azetidin-1-yl)-2-(4-oxo-3-((4-(trifluoromethoxy)phenyl)amino)-4,5-dihydro-1H-pyrazolo[4,3-c]pyridin-1-yl)cyclohexanecarbonitrile]	0.88 nM	31 nM
